Test [1] deals with T1, human capsaicin receptor (Homo sapiens, UniProt Q8NER1).
T1 construct: expressed in transfected cells; host or cells: HEK293 cells stably transfected with pBK-CMV construct
Nature of the test: Calcium mobilization assay, determination of antagonist activity (Example 6). It counts as cell-based. The note with it: cells expressing human capsaicin receptor; capsaicin at its EC50; read-out: IC50 determined as described in Example 6. An excerpt:
A cDNA encoding full length human capsaicin receptor (SEQ ID NO:1, 2 or 3 of U.S. Pat. No. 6,482,611) is subcloned in the plasmid pBK-CMV (Stratagene, La Jolla, Calif.) for recombinant expression in mammalian cells.
Human embryonic kidney (HEK293) cells are transfected with the pBK-CMV expression construct encoding the full length human capsaicin receptor using standard methods. […] Independent clones are isolated from this pool by limiting dilution to obtain clonal stable cell lines for use in subsequent experiments.
This Example illustrates representative calcium mobilization assays for use in evaluating test compounds for agonist and antagonist activity.
(§1) Cells transfected with expression plasmids (as described in Example 4) and thereby expressing human capsaicin receptor are seeded and grown to 70-90% confluency in FALCON black-walled, clear-bottomed 96-well plates (#3904, BECTON-DICKINSON, Franklin Lakes, N.J.). The culture medium is emptied from the 96 well plates and FLUO-3 AM calcium sensitive dye (Molecular Probes, Eugene, Oreg.) is added to each well (dye solution: 1 mg FLUO-3 AM, 440 μL DMSO and 440 μl 20% pluronic acid in DMSO, diluted 1:250 in Krebs-Ringer HEPES (KRH) buffer (25 mM HEPES, 5 mM KCl, 0.96 mM NaH2PO4, 1 mM MgSO4, 2 mM CaCl2, 5 mM glucose, 1 mM probenecid, pH 7.4), 50 μl diluted solution per well). Plates are covered with aluminum foil and incubated at 37° C. for 1-2 hours in an environment containing 5% CO2. After the incubation, the dye is emptied from the plates, and the cells are washed once with KRH buffer, and resuspended in KRH buffer.
To measure the ability of a test compound to agonize or antagonize a calcium mobilization response in cells expressing capsaicin receptors to capsaicin or other vanilloid agonist, the EC50 of the agonist capsaicin is first determined. An additional 20 μl of KRH buffer and 1 μl DMSO is added to each well of cells, prepared as described above. 100 μl capsaicin in KRH buffer is automatically transferred by the FLIPR instrument to each well. […] Data obtained between 30 and 60 seconds after agonist application are used to generate an 8-point concentration response curve, with final capsaicin concentrations of 1 nM to 3 μM.
Test compounds are dissolved in DMSO, diluted in 20 μl KRH buffer so that the final concentration of test compounds in the assay well is between 1 μM and 5 μM, and added to cells prepared as described above. The 96 well plates containing prepared cells and test compounds are incubated in the dark, at room temperature for 0.5 to 6 hours. It is important that the incubation not continue beyond 6 hours. Just prior to determining the fluorescence response, 100 μl capsaicin in KRH buffer at twice the EC50 concentration determined as described above is automatically added by the FLIPR instrument to each well of the 96 well plate for a final sample volume of 200 μl and a final capsaicin concentration equal to the EC50. The final concentration of test compounds in the assay wells is between 1 μM and 5 μM.
A general note: A change in cytosolic calcium serves as a functional read-out for many receptors and channels.

Test [2] concerns the target T1, human capsaicin receptor. Nature of the test: Calcium mobilization assay, agonist response (Example 6). It counts as cell-based. The note with it: positive control in the agonist assay; read-out: approximate EC90 concentration. As to the method: as §1
To measure the ability of a test compound to agonize or antagonize a calcium mobilization response in cells expressing capsaicin receptors to capsaicin or other vanilloid agonist, the EC50 of the agonist capsaicin is first determined. An additional 20 μl of KRH buffer and 1 μl DMSO is added to each well of cells, prepared as described above. 100 μl capsaicin in KRH buffer is automatically transferred by the FLIPR instrument to each well. […]

For test [3], the target named is VR. To be noted: typically; no more than moderate affinity; read-out: Ki value (binds to VR); cited from earlier work.

These results are taken from patent US20080124384A1, “Heteroaryl Substituted Piperazinyl-Pyridine Analogues” (priority 2005, published 2008).

T1 sequence (Q8NER1 whole entry): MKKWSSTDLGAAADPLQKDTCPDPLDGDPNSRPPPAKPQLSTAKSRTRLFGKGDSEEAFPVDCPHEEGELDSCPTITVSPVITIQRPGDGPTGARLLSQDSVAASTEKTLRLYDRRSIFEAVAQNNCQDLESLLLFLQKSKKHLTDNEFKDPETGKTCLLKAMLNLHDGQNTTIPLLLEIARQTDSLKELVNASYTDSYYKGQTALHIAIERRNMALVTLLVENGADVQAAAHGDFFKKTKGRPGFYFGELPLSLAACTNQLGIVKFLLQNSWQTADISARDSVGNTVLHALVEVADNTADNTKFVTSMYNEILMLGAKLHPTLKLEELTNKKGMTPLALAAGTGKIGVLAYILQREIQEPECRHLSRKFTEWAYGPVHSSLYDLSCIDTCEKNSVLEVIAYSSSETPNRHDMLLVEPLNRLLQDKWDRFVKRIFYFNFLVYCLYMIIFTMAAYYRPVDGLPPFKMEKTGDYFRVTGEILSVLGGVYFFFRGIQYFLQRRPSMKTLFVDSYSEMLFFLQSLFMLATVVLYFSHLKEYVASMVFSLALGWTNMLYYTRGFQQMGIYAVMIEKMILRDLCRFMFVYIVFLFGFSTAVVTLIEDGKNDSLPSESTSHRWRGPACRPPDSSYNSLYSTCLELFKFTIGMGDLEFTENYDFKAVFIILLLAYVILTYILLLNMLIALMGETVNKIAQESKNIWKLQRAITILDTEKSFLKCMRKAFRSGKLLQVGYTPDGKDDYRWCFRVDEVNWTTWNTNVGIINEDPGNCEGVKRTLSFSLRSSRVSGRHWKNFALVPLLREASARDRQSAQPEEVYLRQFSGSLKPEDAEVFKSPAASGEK

For the compound `CC1CCCN1c1nc(-c2ccc(F)cc2)cc(N2CCC(c3nnn[nH]3)CC2)n1` (stereo not shown) [Compound 1, 4-(4-Fluoro-phenyl)-2-(2-methyl-pyrrolidin-1-yl)-6-[4-(1H-tetrazol-5-yl)-piperidin-1-yl]pyrimidine], the IC50 (as a rule, the concentration at which inhibition is half-maximal) in test [1] was less than 1000 nM.

As for `CC1CCCN1c1nc(-c2ccc(F)cc2)cc(N2CCN(c3nccn3C)CC2)n1` (stereo not shown) [Compound 2, 4-(4-Fluoro-phenyl)-6-[4-(1-methyl-1H-imidazol-2-yl)-piperazin-1-yl]-2-(2-methyl-pyrrolidin-1-yl)-pyrimidine], in test [1], the 50% inhibitory concentration (IC50) was less than 1000 nM.

Turning to `CC1CCCN1c1nc(-c2ccc(F)cc2)cc(N2CCC(c3nccn3C)CC2)n1` (stereo not shown) [Compound 3], the IC50 in test [1] is less than 1000 nM.

With `CC1CCCN1c1nc(-c2ccc(F)c(Cl)c2)cc(N2CCN(c3nsnc3Cl)CC2)n1` (stereo not shown) [Compound 4], the half-maximal inhibitory concentration (IC50) in test [1] was less than 1000 nM.

With `C[C@@H]1CCCN1c1nc(-c2ccc(F)c(Cl)c2)cc(N2CCN(c3nccn3C)CC2)n1` [Compound 5, 4-(3-Chloro-4-fluoro-phenyl)-6-[4-(1-methyl-1H-imidazol-2-yl)-piperazin-1-yl]-2-((R)-2-methyl-pyrrolidin-1-yl)-pyrimidine], the IC50 in test [1] was less than 1000 nM.

For the compound `COc1cc(CNC(=O)CCCC/C=C/C(C)C)ccc1O` [capsaicin], the EC90 in test [2] was approximately 100 nM.

Turning to `Cl.Cl.Cl.Cl.Cl.Cl.N.N.N.N.N.N.N.N.N.N.N.N.N.N.[O-2].[O-2].[Ru+3].[Ru+3].[Ru+4]` [ruthenium red], the Ki – broadly, the equilibrium dissociation constant of an inhibitor or competing ligand from its target – in test [3] is not below 140000 nM.
